According to patent US20090004118A1, “Multifunctional Nanoparticle Conjugates And Their Use” (priority 2004, published 2009):

Assays:
tumor cell cultures = conditions: cited from earlier work
tubulin = assay: Tubulin polymerization assay; conditions: 10 μM paclitaxel equivalent, absorbance 340 nm, FIG. 3
factor Xa = assay: Factor Xa chromogenic assay (anti Factor Xa heparin activity); assay type: biochemical; conditions: FIG. 2
[1] = tested on: MCF-10A cells (normal breast cells); assay: MTT cytotoxicity assay, MCF-10A cells; assay type: cell-based, Human; conditions: compared to cells treated with Paclitaxel-Heparin-FA

Compound | IC50 values for inhibition of growth of tumor cell cultures (tumor cell cultures) | other results
esperamicin | low picomolar range | –
CC(=O)O[C@H]1C(=O)[C@@]2(C)[C@H]([C@H](OC(=O)c3ccccc3)[C@]3(O)C[C@H](OC(=O)[C@H](O)[C@@H](NC(=O)c4ccccc4)c4ccccc4)C(C)=C1C3(C)C)[C@]1(OC(C)=O)CO[C@@H]1C[C@@H]2O [paclitaxel] | – | ability to induce microtubule assembly (tubulin polymerization) (tubulin): clear increase in absorbance
heparin | – | bioactivity measured by factor Xa chromogenic assay (factor Xa): 179 IU/mg
Nc1nc2ncc(CNc3ccc(C(=O)N[C@@H](CCC(=O)O)C(=O)O)cc3)nc2c(=O)[nH]1 [free folate, folic acid] | – | viability of normal cells [1]: relatively low
dynemicin | low picomolar range | –
calicheamicin | low picomolar range | –
